ChEMBL document CHEMBL1201862, “PubChem BioAssay data set” (2004)
One block for each molecule: values may come before it. Calls of active or inactive are those of the source.

Columns and labels:
[1] = biological target: T1, DNA repair and recombination protein RAD54-like (Homo sapiens, UniProt Q92698); assay: inhibitors of human RAD54 branch migration, confirmation, biochemical, fluorescence, cherry-picked samples, dose series (AID 651657); type: functional
T1 sequence (Q92698 whole entry): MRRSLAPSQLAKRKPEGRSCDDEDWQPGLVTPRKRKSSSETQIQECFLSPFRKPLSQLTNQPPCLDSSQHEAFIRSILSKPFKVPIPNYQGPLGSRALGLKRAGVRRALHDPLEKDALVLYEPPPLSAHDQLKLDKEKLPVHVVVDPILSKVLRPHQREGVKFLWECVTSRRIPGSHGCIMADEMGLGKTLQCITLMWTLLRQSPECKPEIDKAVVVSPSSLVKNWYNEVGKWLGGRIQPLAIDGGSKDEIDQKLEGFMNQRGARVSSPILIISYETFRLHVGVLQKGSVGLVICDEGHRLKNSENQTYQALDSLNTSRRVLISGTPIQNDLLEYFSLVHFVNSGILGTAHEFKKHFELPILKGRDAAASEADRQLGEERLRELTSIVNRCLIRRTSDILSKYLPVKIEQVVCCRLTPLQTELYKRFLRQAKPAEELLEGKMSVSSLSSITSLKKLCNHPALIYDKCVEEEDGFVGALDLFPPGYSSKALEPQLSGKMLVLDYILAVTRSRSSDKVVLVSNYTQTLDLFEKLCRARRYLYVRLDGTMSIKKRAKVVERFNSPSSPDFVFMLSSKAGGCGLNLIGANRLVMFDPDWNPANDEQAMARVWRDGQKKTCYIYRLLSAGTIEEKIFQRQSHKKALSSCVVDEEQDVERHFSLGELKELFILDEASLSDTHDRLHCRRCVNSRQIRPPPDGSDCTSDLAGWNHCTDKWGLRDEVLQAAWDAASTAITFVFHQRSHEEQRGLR

[2] = biological target: DNA repair protein RAD52 homolog (Homo sapiens, UniProt P43351); type: functional, biochemical
DNA repair protein RAD52 homolog, sequence (P43351 whole entry): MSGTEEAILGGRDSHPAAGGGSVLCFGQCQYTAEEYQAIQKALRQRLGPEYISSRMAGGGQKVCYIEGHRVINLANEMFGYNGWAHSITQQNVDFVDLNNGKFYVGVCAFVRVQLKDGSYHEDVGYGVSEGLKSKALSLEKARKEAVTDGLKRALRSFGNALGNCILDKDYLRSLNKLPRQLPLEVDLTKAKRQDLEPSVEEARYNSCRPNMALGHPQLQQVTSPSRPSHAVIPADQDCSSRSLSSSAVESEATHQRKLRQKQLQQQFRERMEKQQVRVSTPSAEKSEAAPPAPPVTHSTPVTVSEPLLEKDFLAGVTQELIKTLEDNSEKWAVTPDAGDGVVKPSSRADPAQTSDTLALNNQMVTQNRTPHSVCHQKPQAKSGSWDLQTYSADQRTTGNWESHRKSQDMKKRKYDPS

[3] = cytotoxicity toward NIH3T3 fibroblasts, dose response, counter-screen, cell-based, ATP luminescence, mouse fibroblasts (AID 2010); type: functional;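 further: cells exposed to compound for about 90 hours before reading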
[4] = biological target: T2, Short transient receptor potential channel 4 (Mus musculus, UniProt Q9QUQ5); assay: mouse TRPC4 channel inhibitors, dose response, cell-based, HEK293 TRPC4/mu-opioid, Fluo-4 calcium (AID 434942); type: functional;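 further: potency of inhibitors blocking the TRPC4 calcium response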
T2 sequence (Q9QUQ5 whole entry): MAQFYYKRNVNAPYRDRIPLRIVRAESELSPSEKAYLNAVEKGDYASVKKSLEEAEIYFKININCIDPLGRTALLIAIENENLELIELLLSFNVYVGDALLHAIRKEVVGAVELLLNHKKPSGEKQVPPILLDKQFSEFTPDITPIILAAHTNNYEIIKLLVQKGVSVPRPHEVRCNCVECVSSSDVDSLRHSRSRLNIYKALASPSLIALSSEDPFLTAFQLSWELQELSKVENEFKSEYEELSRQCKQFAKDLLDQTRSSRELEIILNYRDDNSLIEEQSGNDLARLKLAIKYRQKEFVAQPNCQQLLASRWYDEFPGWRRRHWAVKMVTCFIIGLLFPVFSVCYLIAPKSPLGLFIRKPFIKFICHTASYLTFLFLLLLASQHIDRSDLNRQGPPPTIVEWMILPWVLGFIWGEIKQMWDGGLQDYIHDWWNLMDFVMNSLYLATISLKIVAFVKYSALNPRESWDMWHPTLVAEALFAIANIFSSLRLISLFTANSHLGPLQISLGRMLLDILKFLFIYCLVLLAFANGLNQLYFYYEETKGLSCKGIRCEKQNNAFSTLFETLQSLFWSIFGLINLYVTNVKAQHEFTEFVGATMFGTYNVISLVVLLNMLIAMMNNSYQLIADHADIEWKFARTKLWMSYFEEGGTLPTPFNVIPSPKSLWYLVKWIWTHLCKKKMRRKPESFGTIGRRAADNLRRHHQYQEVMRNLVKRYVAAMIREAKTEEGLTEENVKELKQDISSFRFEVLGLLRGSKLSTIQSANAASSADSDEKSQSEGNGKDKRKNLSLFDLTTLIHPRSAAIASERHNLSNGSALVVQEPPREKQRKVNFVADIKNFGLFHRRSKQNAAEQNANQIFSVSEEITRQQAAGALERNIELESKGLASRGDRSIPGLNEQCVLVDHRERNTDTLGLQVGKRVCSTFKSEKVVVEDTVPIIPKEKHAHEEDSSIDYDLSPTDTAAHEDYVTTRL

[5] = inhibitors of intracellular T. cruzi replication, confirmation, NIH3T3 host cells, beta-gal luminescence (AID 2044); type: functional, cell-based;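 further: intracellular parasites grown in NIH/3T3 mouse fibroblasts as host cells; luminescent beta-galactosidase reporter signal from transgenic T. cruzi replicating inside host cells; inhibitors lower the luminescence signal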
[6] = biological target: Arf-GAP with SH3 domain, ANK repeat and PH domain-containing protein 1 (Homo sapiens, UniProt Q9ULH1); type: functional;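 further: biochemical fluorescence polarization dose–response screen measuring inhibition of ASAP1; ASAP1 GAP domain stimulating GTP hydrolysis by truncated human ARF1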
Arf-GAP with SH3 domain, ANK repeat and PH domain-containing protein 1, sequence (Q9ULH1 whole entry, the tested form may be a part): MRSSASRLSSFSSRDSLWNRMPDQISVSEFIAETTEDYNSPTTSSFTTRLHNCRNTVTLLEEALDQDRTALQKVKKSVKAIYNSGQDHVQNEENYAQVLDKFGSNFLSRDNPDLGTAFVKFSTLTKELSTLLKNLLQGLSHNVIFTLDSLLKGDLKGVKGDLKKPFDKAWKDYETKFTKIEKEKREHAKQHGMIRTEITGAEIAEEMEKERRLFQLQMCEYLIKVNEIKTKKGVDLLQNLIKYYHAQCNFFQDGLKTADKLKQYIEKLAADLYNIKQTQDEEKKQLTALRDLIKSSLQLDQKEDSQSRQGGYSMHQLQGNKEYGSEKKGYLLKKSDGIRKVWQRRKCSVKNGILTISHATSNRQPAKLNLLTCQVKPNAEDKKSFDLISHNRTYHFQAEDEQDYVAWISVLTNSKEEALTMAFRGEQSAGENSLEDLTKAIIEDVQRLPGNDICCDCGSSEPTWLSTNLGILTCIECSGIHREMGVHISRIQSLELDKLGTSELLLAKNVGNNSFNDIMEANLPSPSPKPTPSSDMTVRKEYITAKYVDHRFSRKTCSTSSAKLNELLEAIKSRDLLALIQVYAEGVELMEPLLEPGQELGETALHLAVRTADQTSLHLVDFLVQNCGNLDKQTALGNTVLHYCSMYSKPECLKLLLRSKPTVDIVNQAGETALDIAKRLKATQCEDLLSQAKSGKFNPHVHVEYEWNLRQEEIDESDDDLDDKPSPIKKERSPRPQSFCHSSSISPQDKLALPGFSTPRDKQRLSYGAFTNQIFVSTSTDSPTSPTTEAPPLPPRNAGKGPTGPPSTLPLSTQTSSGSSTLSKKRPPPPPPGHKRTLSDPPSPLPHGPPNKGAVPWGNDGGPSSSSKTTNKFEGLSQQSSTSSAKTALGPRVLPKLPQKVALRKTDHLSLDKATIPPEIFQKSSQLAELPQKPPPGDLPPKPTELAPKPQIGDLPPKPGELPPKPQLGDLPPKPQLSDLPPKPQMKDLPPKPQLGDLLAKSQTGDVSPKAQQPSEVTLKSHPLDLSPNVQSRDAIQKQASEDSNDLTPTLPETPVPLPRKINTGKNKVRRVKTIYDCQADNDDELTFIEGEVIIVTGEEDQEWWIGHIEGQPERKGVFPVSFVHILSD

[7] = biological target: ADP-ribosylation factor GTPase-activating protein 1 (Rattus norvegicus, UniProt Q62848); assay: Fluorescence polarization-based biochemical high throughput dose response screening assay to identify inhibitors of ADP-ribosylation factor GTPase activating protein 1 (ARFGAP1).; type: functional
ADP-ribosylation factor GTPase-activating protein 1, sequence (Q62848 whole entry): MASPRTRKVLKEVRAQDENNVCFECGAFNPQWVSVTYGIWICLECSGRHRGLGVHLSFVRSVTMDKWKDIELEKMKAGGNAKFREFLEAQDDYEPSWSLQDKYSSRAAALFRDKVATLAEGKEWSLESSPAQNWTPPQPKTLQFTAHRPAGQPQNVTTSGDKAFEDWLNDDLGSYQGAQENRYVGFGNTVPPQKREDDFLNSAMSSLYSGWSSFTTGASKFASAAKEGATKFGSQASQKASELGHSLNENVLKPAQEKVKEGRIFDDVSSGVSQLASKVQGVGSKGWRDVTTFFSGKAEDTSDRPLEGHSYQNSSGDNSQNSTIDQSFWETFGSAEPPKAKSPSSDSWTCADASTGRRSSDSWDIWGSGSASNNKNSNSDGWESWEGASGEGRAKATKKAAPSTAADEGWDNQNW

[8] = inhibitors of PGC1a acetylation in cells, dose response, cell-based, cherry-picked samples (AID 720514); type: functional;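 further: potency may reflect raised or lowered acetylation signal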
[9] = MC4R antagonists, dose response, counter-screen for LGR2 antagonist project, cell-based, plate reader, cherry pick (AID 743444); type: functional;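 further: transfected HEK 293 cells stimulated with alpha-MSH peptide; potency of inhibitors of the alpha-MSH evoked signal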
[10] = HepG2 cell cytotoxicity, dose response, cytotoxicity control, plate reader, cherry-pick, antagonist series (AID 743416); type: functional, cell-based
[11] = HEK293 cell cytotoxicity, dose response, cytotoxicity control, plate reader, cherry-picked samples (AID 743446); type: functional, cell-based
[12] = LGR2 antagonists, dose response, cell-based, HEK293, CRE-luciferase reporter, cherry pick, set 2 (AID 743343); type: functional;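 further: transfected cells were stimulated with diluted bursicon conditioned medium after compound addition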
[13] = A549 cell cytotoxicity, dose response, cytotoxicity control, plate reader, cherry-pick, antagonist series (AID 743412); type: functional, cell-based
[14] = ADAM10 inhibitors, peptide cleavage, dose response, biochemical, QFRET (AID 743254);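 further: ADAM10 enzyme with the DM2 quenched FRET peptide as substrate; EDANS fluorescence gain as the protease cuts the substrate; inhibitor potency against ADAM10 proteolytic activity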
[15] = biological target: Disintegrin and metalloproteinase domain-containing protein 17 (Homo sapiens, UniProt P78536); assay: ADAM17 protease inhibitors, dose response, counter-screen for ADAM10 exosite inhibitor project, biochemical, quenched FRET substrate (AID 743253)
Disintegrin and metalloproteinase domain-containing protein 17, sequence (P78536 whole entry, the tested form may be a part): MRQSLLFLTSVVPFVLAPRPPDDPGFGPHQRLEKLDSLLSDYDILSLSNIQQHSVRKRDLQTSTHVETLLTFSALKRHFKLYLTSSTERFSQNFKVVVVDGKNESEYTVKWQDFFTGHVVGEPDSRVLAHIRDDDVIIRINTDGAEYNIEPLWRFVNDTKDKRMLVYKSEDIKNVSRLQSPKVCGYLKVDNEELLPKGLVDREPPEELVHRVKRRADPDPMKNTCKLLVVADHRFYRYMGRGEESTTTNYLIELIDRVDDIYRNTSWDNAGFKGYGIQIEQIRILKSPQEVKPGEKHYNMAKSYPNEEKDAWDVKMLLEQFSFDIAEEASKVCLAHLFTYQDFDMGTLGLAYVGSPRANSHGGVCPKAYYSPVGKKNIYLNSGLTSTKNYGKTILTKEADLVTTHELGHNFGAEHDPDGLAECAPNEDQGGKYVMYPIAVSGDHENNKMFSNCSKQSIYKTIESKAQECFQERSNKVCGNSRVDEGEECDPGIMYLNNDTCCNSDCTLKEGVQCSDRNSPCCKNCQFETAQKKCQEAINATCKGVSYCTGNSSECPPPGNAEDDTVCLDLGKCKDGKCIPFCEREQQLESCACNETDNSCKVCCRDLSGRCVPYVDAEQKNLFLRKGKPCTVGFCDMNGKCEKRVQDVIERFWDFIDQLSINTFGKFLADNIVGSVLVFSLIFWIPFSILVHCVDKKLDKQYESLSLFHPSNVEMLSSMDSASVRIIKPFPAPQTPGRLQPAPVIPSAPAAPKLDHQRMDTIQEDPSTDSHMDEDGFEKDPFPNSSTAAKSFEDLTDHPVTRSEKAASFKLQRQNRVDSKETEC

[16] = HEK293 Cytotoxicity Assay Measured in Cell-Based System Using Plate Reader - 7071-01_Inhibitor_Dose_CherryPick_Activity_Set2.; type: functional
HEK293 = assay: HEK293T cell cytotoxicity, dose response, cytotoxicity control, ATP luminescence, cherry-pick samples (AID 687005); type: functional, cell-based; conditions: Homo sapiens;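 further: cells exposed to compound for 48 hours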
[17] = Inhibition of Plasmodium falciparum NF54 Measured in Cell-Based System Using Plate Reader - 2138-11_Inhibitor_Dose_CherryPick_Activity.; type: functional
[18] = cytotoxicity in L-6 rat myocytes, dose response, cytotoxicity control, cell-based, plate reader, cherry-pick (AID 651896); type: functional
[19] = T. b. rhodesiense proliferation inhibition, dose response, STIB900 strain, plate reader, cherry pick (AID 651893); type: functional, cell-based; conditions: Trypanosoma brucei
[20] = intracellular Trypanosoma cruzi inhibitors in host cells – cell-based, plate reader, cherry-pick samples, set 3, dose response (AID 651818); type: functional;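 further: compounds incubated with infected cells for about four days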
[21] = Inhibition of T. cruzi Tulahuen strain amastigotes in L-6 muscle cells Measured in Cell-Based and Microorganism Combination System Using Plate Reader - 2138-03_Inhibitor_Dose_CherryPick_Activity.; type: functional; conditions: Rattus norvegicus, L6
[22] = L. donovani amastigote growth inhibition, dose response, axenic amastigotes, plate reader, cherry pick (AID 651891); type: functional, cell-based; conditions: Leishmania donovani
[23] = HepG2 cell cytotoxicity, dose response, cytotoxicity control, plate reader, dry powder samples (AID 1159569); type: functional, cell-based;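 further: inhibitor potency with signal falling toward the positive control level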
[24] = P. falciparum 3D7-ScDHODH growth inhibitors, dose response, SYBR Green, dry powder samples (AID 1159570); type: functional, cell-based;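 further: parasite growth measured after 72 hours of compound exposure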
[25] = P. falciparum Dd2 growth inhibitors, dose response, SYBR Green, cherry-picked samples (AID 1159567); type: functional, cell-based
[26] = P. falciparum Dd2 growth inhibitors, dose response, SYBR Green, dry powder samples (AID 1159566); type: functional, cell-based;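 further: potency for growth inhibition with lower SYBR green DNA signal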
[27] = P. falciparum ATP4 D1247Y mutant growth inhibitors, dose response, NITD609-resistant line, SYBR Green, dry powder (AID 1159571); type: functional, cell-based;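 further: parasites synchronized at ring stage by sorbitol before testing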
[28] = growth suppression of beta-catenin-knockout colon cells, dose response, cell-based, HCT116, human colon tumor (AID 1045); type: functional;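 further: HCT116 colon tumor cells with beta catenin knocked out; cells exposed to compound for 60 hours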
[29] = growth suppression of PTEN-null colon cells, dose response, cell-based, HCT116 PTEN knockout (AID 1047); type: functional;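 further: HCT116 colon tumor cells with PTEN knocked out; cells exposed to compound for 60 hours before readout; potency for loss of cell viability measured by luminescence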
Cytochrome P450 2C9 = Cytochrome P450 2C9 (Homo sapiens, UniProt P11712)
Cytochrome P450 2C9, sequence (P11712 whole entry): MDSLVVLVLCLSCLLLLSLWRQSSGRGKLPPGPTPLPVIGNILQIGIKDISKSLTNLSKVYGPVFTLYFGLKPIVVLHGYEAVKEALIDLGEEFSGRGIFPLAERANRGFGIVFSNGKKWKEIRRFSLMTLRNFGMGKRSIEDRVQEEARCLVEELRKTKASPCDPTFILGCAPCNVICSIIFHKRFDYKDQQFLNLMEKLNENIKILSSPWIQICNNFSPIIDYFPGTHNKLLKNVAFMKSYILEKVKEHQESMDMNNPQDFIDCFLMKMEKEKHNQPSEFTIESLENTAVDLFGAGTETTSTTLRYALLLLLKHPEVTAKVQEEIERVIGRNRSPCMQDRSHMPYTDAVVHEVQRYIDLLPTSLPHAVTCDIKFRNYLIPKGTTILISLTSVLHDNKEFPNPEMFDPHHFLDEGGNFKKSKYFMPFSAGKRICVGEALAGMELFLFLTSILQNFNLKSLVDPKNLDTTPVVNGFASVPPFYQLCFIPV

[30] = Luminescence Cell-Based Dose Retest to Confirm Inhibitors of Cancer Stem Cells. [Related pubchem assays (depositor defined):AID2717, AID2721]; type: functional; conditions: Homo sapiens
[31] = cytotoxicity in HeLa cells, dose response, cytotoxicity control, cell-based, 24 h, dry powder, set 2 (AID 651774); type: functional

SMILES: COc1ccc(Nc2nc(NCC3CCCO3)c3ccccc3n2)c(OC)c1 (stereo not drawn)
AC50 [1]: 57.9 µM (active)
AC50 [2]: 13.4 µM (active)
EC50 [3]: > 30 µM (not active)
EC50 [4]: 0.376 µM (active)
EC50 [5]: 0.465 µM (active)

IC50 [6]: 22.9 µM (inactive)
IC50 [7]: 26.2 µM (inactive)
SMILES: Cc1ccc2nc(SCC(=O)N3CCC(C)CC3)nc(=O)n2c1

SMILES: CCN(CC(=O)Nc1ccccc1C(F)(F)F)C(=O)CCSc1ccc(F)cc1
AC50 [8]: 27 µM (active)

SMILES: COc1ccc2nc(NC(=O)c3ccco3)sc2c1
AC50 [9]: 9.96 µM (active)
AC50 [10]: > 52 µM (inactive)
AC50 [11]: > 52 µM (inactive)
AC50 [12]: 6.48 µM (active)
AC50 [13]: > 52 µM (inactive)

IC50 [14]: 16.8 µM (inactive)
IC50 [15]: > 69.5 µM (inactive)
SMILES: FC(F)(F)c1cccc(NC(S)=NCC2COc3ccccc3O2)c1 (stereo not drawn)

SMILES: C[C@H]1CN([C@@H](C)CO)C(=O)c2cc(NS(=O)(=O)c3ccc(F)cc3)ccc2O[C@@H]1CN(C)S(=O)(=O)c1ccccc1
AC50 [16]: > 52 µM (inactive)
AC50 (HEK293): > 52 µM (inactive)

SMILES: C[C@H](CO)N1C[C@H](C)[C@@H](CN(C)Cc2ccc(C(F)(F)F)cc2)Oc2c(NC(=O)c3ccncc3)cccc2C1=O
IC50 [17]: 3.79 µM (inactive)
IC50 [18]: 36.1 µM (inactive)
IC50 [19]: 7.22 µM (inactive)
AC50 [20]: 0.105 µM (active)
IC50 [21]: 3.79 µM (inactive)
IC50 [22]: 41.4 µM (inactive)

SMILES: C[C@H]1CN([C@@H](C)CO)C(=O)c2cccc(NC(=O)c3ccncc3)c2O[C@H]1CN(C)Cc1ccc(-c2ccccc2)cc1
IC50 [17]: 3.21 µM (inactive)
IC50 [18]: 47.5 µM (inactive)
IC50 [19]: 11.2 µM (inactive)
AC50 [20]: 0.08 µM (active)
IC50 [21]: 3.21 µM (inactive)
IC50 [22]: > 100 µM (inactive)

SMILES: N#C[C@@H]1[C@@H](c2ccc(C3=CCCCC3)cc2)[C@H](CO)N1C(=O)NC1CCCC1
AC50 [23]: 35.6 µM (active)
AC50 [24]: 3.06 µM (active)
AC50 [25]: 2.28 µM (active)
AC50 [26]: 1.46 µM (active)
AC50 [27]: 2.61 µM (active)

SMILES: O=C(C[C@@H]1CC[C@@H]2[C@H](COC[C@H](O)CN2S(=O)(=O)c2ccc(Oc3ccccc3)cc2)O1)NC1CCC1
AC50 [16]: > 52 µM (inactive)
AC50 (HEK293): > 52 µM (inactive)

SMILES: C=C(C)COc1ccc(-c2[nH]nc(C)c2-c2ccc(OC)cc2)c(O)c1
IC50 [14]: 9.09 µM (active)
EC50 [28]: 18 µM (active)
EC50 [29]: 17.7 µM (active)
AC50 (Cytochrome P450 2C9): 25.1 µM (inconclusive)
AC50 [30]: 3.41 µM (active)
IC50 [15]: > 69.6 µM (inactive)

SMILES: CCn1nnnc1NCc1cccn1C
AC50 [31]: 31.1 µM (active)
